Measurements as given in ChEMBL document CHEMBL4507268 (2021).

What was measured:
Settings in all cases: Compound concentration 1.0 uM
[1] = target: Serine/threonine-protein kinase 32B (Homo sapiens) (UniProt Q9NY57)
[2] = target: Mitogen-activated protein kinase kinase kinase 9 (Homo sapiens) (UniProt P80192)
[3] = target: Serine/threonine-protein kinase 25 (Homo sapiens) (UniProt O00506)
[4] = target: Serine/threonine-protein kinase VRK2 (Homo sapiens) (UniProt Q86Y07)
[5] = target: T1, Serine/threonine-protein kinase Sgk1 (Homo sapiens) (UniProt O00141)
T1 sequence (whole entry): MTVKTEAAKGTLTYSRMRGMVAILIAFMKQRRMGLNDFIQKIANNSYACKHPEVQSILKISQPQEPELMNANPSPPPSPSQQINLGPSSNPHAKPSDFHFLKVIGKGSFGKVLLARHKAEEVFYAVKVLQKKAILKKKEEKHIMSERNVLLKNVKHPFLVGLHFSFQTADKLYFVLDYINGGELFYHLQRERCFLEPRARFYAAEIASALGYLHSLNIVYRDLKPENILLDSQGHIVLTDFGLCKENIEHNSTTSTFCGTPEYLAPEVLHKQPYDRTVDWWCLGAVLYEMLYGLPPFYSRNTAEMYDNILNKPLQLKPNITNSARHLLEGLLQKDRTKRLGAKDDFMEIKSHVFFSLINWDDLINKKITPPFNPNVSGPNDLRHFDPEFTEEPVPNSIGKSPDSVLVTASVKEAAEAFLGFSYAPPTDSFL

[6] = target: Serine/threonine-protein kinase tousled-like 2 (Homo sapiens) (UniProt Q86UE8)
[7] = target: Cyclin-dependent kinase-like 1 (Homo sapiens) (UniProt Q00532)
[8] = target: Serine/threonine-protein kinase PAK 2 (Homo sapiens) (UniProt Q13177)
[9] = target: T2, Serine/threonine-protein kinase BRSK1 (Homo sapiens) (UniProt Q8TDC3)
T2 sequence (whole entry): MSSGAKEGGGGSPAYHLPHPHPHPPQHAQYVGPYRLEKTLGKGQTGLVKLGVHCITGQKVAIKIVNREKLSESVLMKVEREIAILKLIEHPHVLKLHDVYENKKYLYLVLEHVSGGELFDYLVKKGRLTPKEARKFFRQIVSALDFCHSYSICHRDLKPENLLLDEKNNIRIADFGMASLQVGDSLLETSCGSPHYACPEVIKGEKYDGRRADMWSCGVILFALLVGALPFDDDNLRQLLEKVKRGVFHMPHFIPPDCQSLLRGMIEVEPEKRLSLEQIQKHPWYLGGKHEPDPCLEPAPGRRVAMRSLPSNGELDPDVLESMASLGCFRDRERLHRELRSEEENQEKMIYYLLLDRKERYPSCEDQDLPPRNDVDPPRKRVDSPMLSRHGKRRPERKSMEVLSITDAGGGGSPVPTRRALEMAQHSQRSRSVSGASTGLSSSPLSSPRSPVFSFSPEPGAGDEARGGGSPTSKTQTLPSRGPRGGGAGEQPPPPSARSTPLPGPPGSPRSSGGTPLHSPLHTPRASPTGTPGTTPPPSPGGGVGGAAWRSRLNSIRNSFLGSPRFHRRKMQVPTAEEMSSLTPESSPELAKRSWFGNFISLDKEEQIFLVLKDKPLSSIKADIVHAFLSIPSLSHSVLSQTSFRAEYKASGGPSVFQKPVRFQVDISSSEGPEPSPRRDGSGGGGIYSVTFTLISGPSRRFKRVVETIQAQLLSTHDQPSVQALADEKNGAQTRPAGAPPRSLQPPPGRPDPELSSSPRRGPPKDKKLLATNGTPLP

[10] = target: Serine/threonine-protein kinase pim-3 (Homo sapiens) (UniProt Q86V86)
[11] = target: T3, TGF-beta receptor type-1 (Homo sapiens) (UniProt P36897)
T3 sequence (whole entry): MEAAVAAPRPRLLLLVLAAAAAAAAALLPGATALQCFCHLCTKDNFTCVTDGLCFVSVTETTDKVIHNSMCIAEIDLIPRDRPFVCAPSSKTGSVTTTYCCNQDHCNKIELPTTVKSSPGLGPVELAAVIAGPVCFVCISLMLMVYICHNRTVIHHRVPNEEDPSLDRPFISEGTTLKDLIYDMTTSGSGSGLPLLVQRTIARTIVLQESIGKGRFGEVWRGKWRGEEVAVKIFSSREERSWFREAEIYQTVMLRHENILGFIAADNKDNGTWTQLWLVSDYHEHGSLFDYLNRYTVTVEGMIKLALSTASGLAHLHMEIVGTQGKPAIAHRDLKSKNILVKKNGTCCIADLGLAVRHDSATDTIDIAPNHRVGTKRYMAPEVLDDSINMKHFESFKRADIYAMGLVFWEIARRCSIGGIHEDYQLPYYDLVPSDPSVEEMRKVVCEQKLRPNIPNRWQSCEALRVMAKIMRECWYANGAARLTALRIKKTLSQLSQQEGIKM

[12] = target: Serine/threonine-protein kinase 10 (Homo sapiens) (UniProt O94804)

Measured: % residual kinase activity

Chain of Mitogen-activated protein kinase kinase kinase 9 (Homo sapiens) (P80192 whole entry, looked up): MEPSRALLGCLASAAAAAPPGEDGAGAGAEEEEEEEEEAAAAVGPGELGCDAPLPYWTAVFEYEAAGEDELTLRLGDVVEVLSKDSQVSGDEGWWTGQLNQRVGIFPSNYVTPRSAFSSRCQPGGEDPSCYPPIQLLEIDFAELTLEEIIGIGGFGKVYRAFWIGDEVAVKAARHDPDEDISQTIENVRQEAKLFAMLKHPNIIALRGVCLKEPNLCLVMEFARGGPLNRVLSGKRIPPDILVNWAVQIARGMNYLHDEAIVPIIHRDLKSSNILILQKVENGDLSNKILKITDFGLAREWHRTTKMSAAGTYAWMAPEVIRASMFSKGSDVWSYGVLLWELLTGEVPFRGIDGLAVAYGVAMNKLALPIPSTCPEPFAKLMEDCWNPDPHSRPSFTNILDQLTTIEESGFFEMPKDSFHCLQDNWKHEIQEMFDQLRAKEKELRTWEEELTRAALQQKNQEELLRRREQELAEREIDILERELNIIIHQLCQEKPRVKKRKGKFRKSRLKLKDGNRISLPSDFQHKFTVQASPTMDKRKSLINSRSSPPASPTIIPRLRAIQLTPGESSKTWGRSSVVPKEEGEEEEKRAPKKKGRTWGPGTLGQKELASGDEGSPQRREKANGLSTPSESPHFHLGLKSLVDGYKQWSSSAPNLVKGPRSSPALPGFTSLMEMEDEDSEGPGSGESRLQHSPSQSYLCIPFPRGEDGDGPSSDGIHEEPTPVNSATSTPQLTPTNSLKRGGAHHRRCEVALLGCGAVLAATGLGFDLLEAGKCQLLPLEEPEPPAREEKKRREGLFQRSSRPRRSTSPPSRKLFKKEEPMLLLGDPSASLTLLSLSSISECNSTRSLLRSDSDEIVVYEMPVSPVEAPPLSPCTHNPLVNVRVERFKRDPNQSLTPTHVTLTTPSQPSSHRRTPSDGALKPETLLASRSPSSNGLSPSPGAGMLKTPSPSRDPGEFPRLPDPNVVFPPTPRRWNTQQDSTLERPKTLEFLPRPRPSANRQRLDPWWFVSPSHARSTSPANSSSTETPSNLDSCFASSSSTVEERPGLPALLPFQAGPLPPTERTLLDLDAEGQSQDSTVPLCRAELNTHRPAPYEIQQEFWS
Chain of Serine/threonine-protein kinase tousled-like 2 (Homo sapiens) (Q86UE8 whole entry, looked up): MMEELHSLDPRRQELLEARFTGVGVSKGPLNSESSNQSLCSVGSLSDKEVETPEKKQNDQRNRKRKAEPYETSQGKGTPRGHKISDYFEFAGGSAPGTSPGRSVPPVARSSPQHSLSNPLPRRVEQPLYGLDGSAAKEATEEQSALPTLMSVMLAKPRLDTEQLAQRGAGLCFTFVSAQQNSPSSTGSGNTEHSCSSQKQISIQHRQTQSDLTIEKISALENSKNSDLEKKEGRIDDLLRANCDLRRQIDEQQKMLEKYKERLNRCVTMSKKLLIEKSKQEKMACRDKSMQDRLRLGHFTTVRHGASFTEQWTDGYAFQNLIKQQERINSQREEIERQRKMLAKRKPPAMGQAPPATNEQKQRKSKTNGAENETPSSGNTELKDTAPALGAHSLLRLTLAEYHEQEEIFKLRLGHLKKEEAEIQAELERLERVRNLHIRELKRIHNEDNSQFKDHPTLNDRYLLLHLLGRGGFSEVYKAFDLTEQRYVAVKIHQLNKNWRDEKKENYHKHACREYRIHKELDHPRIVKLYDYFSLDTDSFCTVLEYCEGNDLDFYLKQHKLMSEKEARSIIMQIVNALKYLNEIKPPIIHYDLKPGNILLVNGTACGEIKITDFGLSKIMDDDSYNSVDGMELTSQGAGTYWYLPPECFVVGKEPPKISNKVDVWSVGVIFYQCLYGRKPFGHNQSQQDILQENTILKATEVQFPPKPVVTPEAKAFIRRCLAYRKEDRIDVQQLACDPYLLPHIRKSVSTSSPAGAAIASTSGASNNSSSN
Chain of Cyclin-dependent kinase-like 1 (Homo sapiens) (Q00532 whole entry): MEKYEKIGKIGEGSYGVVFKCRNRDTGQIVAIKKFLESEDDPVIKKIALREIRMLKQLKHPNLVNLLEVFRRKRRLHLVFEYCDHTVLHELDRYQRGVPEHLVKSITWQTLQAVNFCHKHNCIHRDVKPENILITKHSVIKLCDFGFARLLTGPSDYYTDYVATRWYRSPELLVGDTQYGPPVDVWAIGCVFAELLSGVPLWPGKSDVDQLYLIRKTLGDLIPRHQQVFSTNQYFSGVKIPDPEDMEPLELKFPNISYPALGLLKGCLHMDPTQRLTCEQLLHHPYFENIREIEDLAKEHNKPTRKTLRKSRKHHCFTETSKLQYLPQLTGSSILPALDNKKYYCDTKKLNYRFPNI
Chain of Serine/threonine-protein kinase 25 (Homo sapiens) (O00506 whole entry, looked up): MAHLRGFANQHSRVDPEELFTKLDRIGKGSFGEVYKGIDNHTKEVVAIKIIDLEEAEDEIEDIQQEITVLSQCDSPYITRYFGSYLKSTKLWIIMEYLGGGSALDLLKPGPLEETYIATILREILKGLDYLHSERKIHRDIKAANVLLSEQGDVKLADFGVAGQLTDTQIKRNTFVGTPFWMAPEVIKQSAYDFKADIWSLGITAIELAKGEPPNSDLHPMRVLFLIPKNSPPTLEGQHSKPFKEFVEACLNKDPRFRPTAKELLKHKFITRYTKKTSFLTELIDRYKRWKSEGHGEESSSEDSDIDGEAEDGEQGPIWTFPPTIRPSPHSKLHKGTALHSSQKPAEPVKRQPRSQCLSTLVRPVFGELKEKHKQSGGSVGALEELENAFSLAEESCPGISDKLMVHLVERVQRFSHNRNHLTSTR
Chain of Serine/threonine-protein kinase VRK2 (Homo sapiens) (Q86Y07 whole entry): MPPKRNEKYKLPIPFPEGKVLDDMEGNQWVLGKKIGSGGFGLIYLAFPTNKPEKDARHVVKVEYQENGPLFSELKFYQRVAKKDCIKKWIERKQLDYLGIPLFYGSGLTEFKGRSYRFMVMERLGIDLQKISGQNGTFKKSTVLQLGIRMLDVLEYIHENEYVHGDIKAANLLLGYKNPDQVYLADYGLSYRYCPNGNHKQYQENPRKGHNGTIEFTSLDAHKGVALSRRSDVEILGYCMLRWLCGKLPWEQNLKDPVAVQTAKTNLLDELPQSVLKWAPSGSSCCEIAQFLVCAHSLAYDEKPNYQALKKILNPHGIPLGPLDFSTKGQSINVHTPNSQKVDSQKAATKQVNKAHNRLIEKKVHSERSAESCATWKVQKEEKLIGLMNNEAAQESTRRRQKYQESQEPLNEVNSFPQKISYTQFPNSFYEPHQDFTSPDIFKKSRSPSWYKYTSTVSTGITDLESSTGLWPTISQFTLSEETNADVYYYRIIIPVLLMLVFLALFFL
Chain of Serine/threonine-protein kinase 32B (Homo sapiens) (Q9NY57 whole entry): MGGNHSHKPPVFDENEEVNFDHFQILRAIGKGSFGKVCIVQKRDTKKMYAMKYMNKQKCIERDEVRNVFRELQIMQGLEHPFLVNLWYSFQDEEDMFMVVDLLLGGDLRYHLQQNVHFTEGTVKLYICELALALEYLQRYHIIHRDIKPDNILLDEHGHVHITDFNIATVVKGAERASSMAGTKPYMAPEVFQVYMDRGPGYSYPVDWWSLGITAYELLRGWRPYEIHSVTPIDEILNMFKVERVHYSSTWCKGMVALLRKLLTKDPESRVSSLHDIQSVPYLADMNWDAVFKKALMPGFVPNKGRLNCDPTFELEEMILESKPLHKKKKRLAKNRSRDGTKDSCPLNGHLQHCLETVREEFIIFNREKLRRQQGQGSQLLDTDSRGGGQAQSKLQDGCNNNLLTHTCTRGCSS
Chain of Serine/threonine-protein kinase PAK 2 (Homo sapiens) (Q13177 whole entry): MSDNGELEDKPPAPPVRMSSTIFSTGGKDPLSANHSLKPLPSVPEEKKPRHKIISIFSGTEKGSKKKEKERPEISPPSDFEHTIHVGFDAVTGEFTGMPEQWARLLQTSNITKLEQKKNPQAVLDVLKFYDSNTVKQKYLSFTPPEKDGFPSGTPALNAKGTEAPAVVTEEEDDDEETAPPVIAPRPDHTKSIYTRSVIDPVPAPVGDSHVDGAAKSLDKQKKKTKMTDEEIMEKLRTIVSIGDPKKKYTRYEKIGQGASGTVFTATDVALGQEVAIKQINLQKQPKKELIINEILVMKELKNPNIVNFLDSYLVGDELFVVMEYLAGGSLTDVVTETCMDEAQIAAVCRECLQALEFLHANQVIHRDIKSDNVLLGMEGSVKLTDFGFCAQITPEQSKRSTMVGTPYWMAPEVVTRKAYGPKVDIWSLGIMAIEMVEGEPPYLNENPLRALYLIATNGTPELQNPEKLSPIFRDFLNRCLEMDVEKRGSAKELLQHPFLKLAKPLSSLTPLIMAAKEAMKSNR

CN1CCN(c2cnc3c(C4CCN(C(=O)c5ccc(OC(F)(F)F)cc5N)CC4)ncnc3c2)CC1 [BAY-885]
inactive: [1] 98% | [2] 108% | [3] 87% | [4] 106% | [5] 113% | [6] 98% | [7] 115% | [8] 108% | [9] 104% | [10] 102% | [11] 81% | [12] 114%
